Measured values reported in US20100204258A1, “METHODS AND COMPOSITIONS FOR MODULATING INSULIN SECRETION AND GLUCOSE METABOLISM” (The Trustees of Columbia University in the City of New York, priority 2007, published 2010).
“Also recorded” adds a separate entry of the source.

Experiments:
[1] = tested on: dopamine content of brain and pancreas tissue; assay: Dopamine content of brain and pancreas extracts by ELISA after i.v. TBZ; assay type: in vivo, rat
Protocol: Dopamine measurements. Anaesthetized rats received an intravenous injection of TBZ and were sacrificed one hour later. Euthanasia was performed by exsanguination of the anesthetized animal. Brain and pancreas were harvested as quickly as possible and frozen at −80° C. until use. Frozen tissue was pulverized in a liquid nitrogen cooled mortar and extracted in 0.01 N HCl. The tissue extract was centrifuged at 10,000×g at 4° C. to remove debris and the total protein was estimated by reading the absorbance at 280 nm. The concentration of dopamine in the extract was estimated using an ELISA kit from Rocky Mountain Diagnostics (Colorado Springs, Colo.) per the manufacturer's instructions and normalized to the extract protein concentration.

[2] = tested on: diabetic Lewis rats; assay: IPGTT in streptozotocin-induced diabetic Lewis rats; assay type: in vivo, rat
Protocol: (§1) Experimental animals. All animal studies were reviewed and approved by the Institutional Animal Care and Use Committee (IACUC) at Columbia University's Medical School. All experiments were performed in accordance with the IACUC approved procedures. Normal male Lewis rats (100-400 grams) were obtained from Taconic (Taconic Inc., Germantown, N.Y.) and were housed under conditions of controlled humidity (55±5%), temperature (23±1° C.), and lighting (light on: 06.00-18.00 hours) with free access to standard laboratory rat chow and water. Rats were handled daily to minimize nonspecific stress for more than 7 days before the experiments began. In most experiments, it was necessary to measure blood glucose in fasting animals. For these groups, food was removed at the beginning of the light cycle, 6 hours before glucose levels were measured. Diabetes mellitus was induced by intraperitoneal injection of streptozotocin (Sigma Chemical Co., St. Louis, Mo.) (25 to 50 mg/kg) to animals (100 to 150 grams) that had been fasted 4 hours to enhance the effectiveness of STZ treatment.
(§2) The STZ solution was prepared fresh by dissolving it in 0.1 M citrate buffer (pH 5.5) and terminally sterile filtered. Control Lewis age and weight matched rats received a 0.5 ml/kg citrate vehicle alone via intraperitoneal injection. Sixty minutes prior to intraperitoneal glucose tolerance testing (IPGTT), anesthesia of male Lewis rats was induced with isoflurane (3-4% in oxygen) and maintained with 1-2% isoflurane in oxygen. Anaesthetized rats were administered TBZ at the indicated dose by intravenous (i.v.) injection using the penile vein. TBZ was dissolved in neat sterile dimethylsulfoxide (DMSO) and diluted (always more than 10 fold) in sterile saline. Rats received injections of vehicle alone (10% DMSO in saline) or reserpine (in saline). Animals recovered fully before receiving IPGTT.
Blood glucose, insulin, glucagon and intraperitoneal glucose tolerance tests measurements. Blood samples were collected from a superficial blood vessel in the tails of the rats following 6 hours of fasting between 12:00 noon and 2:00 p.m. The fasting blood glucose (BG) levels of the rats were measured using an Accu-Check blood glucose monitoring system (Roche Diagnostics, Sommerville, N.J.). […] BG concentrations were measured immediately on these samples and the remainder processed.
Plasma was immediately separated by centrifugation at 3000×g for 15 minutes and then stored at −20° C. until analysis. […] The area under the IPGTT glucose concentration×time curve (AUCIPGTT) was calculated by the trapezoidal rule. The area under the insulin or glucagon concentration×time curve (AUC INS or AUC GCG) was calculated in a similar manner.

[3] = tested on: Lewis rats; assay: Intraperitoneal glucose tolerance test (IPGTT) in normal Lewis rats after a single i.v. dose; assay type: in vivo, rat; details: for blood glucose excursion during IPGTT: Lewis rats 9-11 week old, 1.6 μg/gm body weight i.v. 60 min before IPGTT, vs vehicle
Protocol: as §1, §2
(§3) Blood glucose, insulin, glucagon and intraperitoneal glucose tolerance tests measurements. Blood samples were collected from a superficial blood vessel in the tails of the rats following 6 hours of fasting between 12:00 noon and 2:00 p.m. The fasting blood glucose (BG) levels of the rats were measured using an Accu-Check blood glucose monitoring system (Roche Diagnostics, Sommerville, N.J.). Intraperitoneal glucose tolerance tests (IPGTT) were performed in 6 hour fasting un-anaesthetized animals. Briefly, after baseline BG measurements, animals received an intraperitoneal (i.p.) injection of 1 gram glucose/kilogram body weight. To minimize stress during the procedure, rats were handled by the same operator during acclimatization and later during weighing and IPGTT. Blood samples (approximately 30 μl) were collected at baseline and then again 15, 30, 60, 90, and 120 minutes following i.p. glucose administration. BG concentrations were measured immediately on these samples and the remainder processed.
(§4) Plasma was immediately separated by centrifugation at 3000×g for 15 minutes and then stored at −20° C. until analysis. Insulin and glucagon concentration measurements in rat plasma were performed by ELISA as per the manufacturer's instructions using kits from Linco Research Inc. (St. Charles, Mo.) and Alpco Diagnostics (Salem, N.H.), respectively. To validate the test, saline injections were performed by the same method. […] The area under the IPGTT glucose concentration×time curve (AUCIPGTT) was calculated by the trapezoidal rule. The area under the insulin or glucagon concentration×time curve (AUC INS or AUC GCG) was calculated in a similar manner.

[4] = tested on: human islets; assay: Glucose-stimulated insulin secretion of purified human cadaveric islets ex vivo; assay type: cell-based; details: absence of high glucose stimulation; data not shown
Protocol: Human islet tissue and glucose-stimulated insulin secretion. The islet tissue used in these studies was obtained with institutional review board approval. Pancreas digestion and islet isolation were performed using minor modifications of the Edmonton purification protocol. (Shapiro, […] al. “Islet […] in seven patients with type I diabetes mellitus using a glucocortoid-free immunosuppressive regimen.” New England Journal of Medicine 343(4):230-8, (2000)) The determination of islet cell mass, viability, and purity were also performed. Purified islets were cultured in CMRL 1066 culture media with 10% fetal bovine serum at 37° C. in humidified air (5% CO2) for 18 to 24 hours. The human islet insulin secretory response was performed according to a procedure described by the Edmonton group. (Id.) Briefly, after an overnight culture, islets were incubated with either low or high concentrations of glucose for 2 hours at 37° C. and 5% CO2. The supernatant was collected for insulin measurement. Insulin concentrations in these experiments were analyzed with a human insulin enzyme-linked immunosorbent assay (ELISA) kit (ALPCO Insulin ELISA kit, Windham, N.H.). In some experiments TBZ, DTBZ or epinephrine was added to the cultures before glucose stimulation.

[5] = tested on: plasma insulin and glucagon; assay: Plasma insulin and glucagon (ELISA) during IPGTT; assay type: in vivo, rat
Protocol: as §3, §4

[6] = 1.6 μg/gm body weight i.v., one hour later (FIG. 3)
[7] = one hour after injection of 10 μg/gm body weight

`COc1cc2c(cc1OC)C1CC(=O)C(CC(C)C)CN1CC2` (stereo not drawn) [TBZ, tetrabenazine] was tested, and the “dopamine content of brain tissue” value [1, 6] was “reduces the dopamine content”, the “dopamine content of pancreas tissue” value [1, 6] was “reduces the dopamine content” and the “dopamine content of brain” value [1, 7] was “significantly depleted”. For the same molecule, the “dopamine content of pancreas” value [1, 7] was “significantly depleted”, the “blood glucose excursion during IPGTT” value ([2]; STZ-diabetic Lewis rats, 1.6 μg/gm, vs vehicle) was “reduces the blood glucose excursion” and the “blood glucose levels before i.p. glucose challenge” value ([2]; STZ-diabetic rats, around sixty minutes following i.v. injection) was “returned to control or near normal levels”. The “area under the curve in the IPGTT” value ([2]; STZ-diabetic rats, following glucose challenge) was “smaller area under the curve”, the glucose tolerance-enhancing effects ([2]; animals with initial untreated AUC IPGTT>50,000 minutes×mg/dl, data not shown) was “not observed” and the “reduction of the glucose excursion (areas under the curve during IPGTT)” value ([3]; 1.6 μg/gbm (gram body weight) i.v.) was 40-50%. For the same molecule, the “AUC IPGTT, controls vs TBZ treated animals” value ([3]; 1.6 μg/gm body weight, n=4 experiments, p<0.05) was “significantly higher”, the “rise in glucose concentration around 15 minutes after injection” value ([3]; IPGTT following TBZ administration) was “blunted” and the “blood glucose excursion during IPGTT” value [3] was “reduces the blood glucose excursion”. The “blood glucose excursion during IPGTT” value ([3]; listed as tetrabenazine) was “significant change in the size and shape of the glucose disposition curve”, the “baseline fasting glucose concentration” value ([3]; following TBZ administration, before glucose challenge, data not shown) was “no reproducible differences” and the “dose response of AUC IPGTT (normalized to baseline)” value ([3]; varying doses of TBZ before IPGTT) was “reduces the blood glucose excursion in a dose dependent manner; also recorded: complex dose response effect”. The “insulin secretion of human islets” value [4] was “not observed”, the “plasma insulin levels during IPGTT” value ([5]; TBZ 1.6 μg/gm and glucose challenge, vs vehicle treated controls) was “alters; also recorded: greater” and the “AUC INS with treatment relative to AUC INS of control animals” value ([5]; four out of five experiments) was “greater than two fold”. For the same molecule, the “plasma glucagon levels during IPGTT” value ([5]; i.v. TBZ 1.6 μg/gm and glucose challenge, relative to controls) was “alters; also recorded: generally lower”, the “baseline plasma concentrations of glucagon” value ([5]; prior to glucose challenge, not statistically significant) was “sometimes lower than controls” and the “AUC GCG, less than that of control animals” value ([5]; three of five experiments) was 75%-85%.
